# Source: patent US12298319B2, “Method for measuring alpha value of muscarinic M1 receptor positive allosteric modulators” (Takeda Pharmaceutical Company Limited, priority 2017, dated 2025)
# Experiments:
# M2R = molecular target: T1, M2R (Homo sapiens, UniProt P08172); assay: Ca2+ flux PAM activity against other muscarinic receptor subtypes, M2R; format: cell-based; details: in the presence of EC20 ACh; read-out: PAM activity against other muscarinic receptor subtypes M2R pIP
# T1 sequence (P08172 1-466): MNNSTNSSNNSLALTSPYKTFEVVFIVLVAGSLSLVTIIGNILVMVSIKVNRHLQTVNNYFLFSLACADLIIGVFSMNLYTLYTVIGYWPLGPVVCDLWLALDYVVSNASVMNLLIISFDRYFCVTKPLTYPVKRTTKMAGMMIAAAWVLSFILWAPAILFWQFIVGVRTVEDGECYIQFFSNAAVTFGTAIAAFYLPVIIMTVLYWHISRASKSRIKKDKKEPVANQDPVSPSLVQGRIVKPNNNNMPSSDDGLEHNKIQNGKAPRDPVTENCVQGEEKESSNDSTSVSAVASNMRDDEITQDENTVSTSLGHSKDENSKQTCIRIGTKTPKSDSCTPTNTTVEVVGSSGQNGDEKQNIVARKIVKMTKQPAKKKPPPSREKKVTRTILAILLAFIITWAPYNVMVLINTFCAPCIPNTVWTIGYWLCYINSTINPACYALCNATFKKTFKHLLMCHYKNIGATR
# M3R = M3R (Homo sapiens, UniProt P20309); assay: Ca2+ flux PAM activity against other muscarinic receptor subtypes, M3R; format: cell-based; details: in the presence of EC20 ACh; read-out: PAM activity against other muscarinic receptor subtypes M3R pIP
# M4R = molecular target: T2, M4R (Homo sapiens, UniProt P08173); assay: Ca2+ flux PAM activity against other muscarinic receptor subtypes, M4R; format: cell-based; details: in the presence of EC20 ACh; read-out: PAM activity against other muscarinic receptor subtypes M4R pIP (converted)
# T2 sequence (P08173 1-479): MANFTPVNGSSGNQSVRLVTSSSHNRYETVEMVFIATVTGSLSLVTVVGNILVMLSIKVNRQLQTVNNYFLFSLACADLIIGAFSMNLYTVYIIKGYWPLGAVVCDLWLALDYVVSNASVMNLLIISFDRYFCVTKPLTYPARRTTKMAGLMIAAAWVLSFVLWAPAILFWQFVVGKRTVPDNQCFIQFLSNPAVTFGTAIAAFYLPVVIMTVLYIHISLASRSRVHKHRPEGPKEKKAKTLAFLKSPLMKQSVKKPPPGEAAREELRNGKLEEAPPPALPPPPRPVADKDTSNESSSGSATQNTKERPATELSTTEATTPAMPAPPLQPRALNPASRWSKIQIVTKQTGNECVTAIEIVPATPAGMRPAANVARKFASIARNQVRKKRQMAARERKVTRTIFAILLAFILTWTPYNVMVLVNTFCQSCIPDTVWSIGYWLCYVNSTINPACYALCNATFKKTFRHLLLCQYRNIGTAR
# human M1R = molecular target: T3, human M1R (Homo sapiens, UniProt P11229); assay: Binding modulation assay, displacement of [3H]-pirenzepine by ACh, FreeStyle 293 cell membranes; parameters: expressed in transfected cells; host or cells: FreeStyle 293 cells (transient), cell membranes; details: for Kb: affinity of the PAM to the free M1R, read-out: pKB Mean (converted); for log α Mean / α-value: binding cooperativity between ACh and PAM
# T3 sequence (P11229 1-460): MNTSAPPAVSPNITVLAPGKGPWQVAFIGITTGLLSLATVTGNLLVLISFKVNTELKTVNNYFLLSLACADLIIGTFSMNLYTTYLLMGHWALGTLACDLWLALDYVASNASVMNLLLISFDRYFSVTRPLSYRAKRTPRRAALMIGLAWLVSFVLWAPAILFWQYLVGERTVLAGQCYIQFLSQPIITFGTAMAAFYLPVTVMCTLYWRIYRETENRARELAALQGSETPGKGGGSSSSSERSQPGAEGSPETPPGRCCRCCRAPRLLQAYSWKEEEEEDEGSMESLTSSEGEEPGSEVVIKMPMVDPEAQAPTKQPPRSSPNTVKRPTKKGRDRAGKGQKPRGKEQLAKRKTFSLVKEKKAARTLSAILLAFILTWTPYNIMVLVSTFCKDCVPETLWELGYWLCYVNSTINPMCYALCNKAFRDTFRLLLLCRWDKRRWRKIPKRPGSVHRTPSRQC
# Procedure: Binding assay was performed in 96-well plate format. Cell membranes from FreeStyle 293 cells transiently expressed human M1R were incubated with test compounds, ACh and 4 nM [^3H]-pirenzepine in an assay buffer (20 mM HEPES, 100 mM NaCl, 10 mM MgCl2, 0.1% fatty acid free BSA). After 2 h incubation at room temperature, cell membranes were transferred to GF/C filter plates (PerkinElmer, Massachusetts, USA) using cell-harvester (PerkinElmer) and washed 5 times with 300 μL of 50 mM Tris-HCl. Then, GF/C plates were dried at 42° C. 25 μL of microscint 0 (PerkinElmer) was added and the radioactivity was measured by Topcount (PerkinElmer). Non-specific bound was defined in the presence of 10 μM atropine.
# All data were analyzed using GraphPad Prism 5 software (GraphPad Software Inc., California, USA). Radioligand binding data were globally fitted to the following allosteric ternary complex model:
# [formula] where Y is the percentage of specific binding; [A], [B], and [C] are the concentrations of ACh, the allosteric modulator, and [^3H]-pirenzepine, respectively; KA, KB, and KC denote the equilibrium dissociation constants of ACh, the allosteric modulator, and [^3H]-pirenzepine, respectively; and αAB and […] are the cooperativities between the allosteric modulator and ACh or [^3H]-pirenzepine, respectively. […] The functional interactions between M1 PAMs and ACh were globally fitted to the following operational model of allosterism (Nat Rev Drug Discov. 2009; 8(1): 41-54 and Trends Pharmacol Sci. 2007; 28(8): 382-9)
# Chain of M3R (P20309 whole entry): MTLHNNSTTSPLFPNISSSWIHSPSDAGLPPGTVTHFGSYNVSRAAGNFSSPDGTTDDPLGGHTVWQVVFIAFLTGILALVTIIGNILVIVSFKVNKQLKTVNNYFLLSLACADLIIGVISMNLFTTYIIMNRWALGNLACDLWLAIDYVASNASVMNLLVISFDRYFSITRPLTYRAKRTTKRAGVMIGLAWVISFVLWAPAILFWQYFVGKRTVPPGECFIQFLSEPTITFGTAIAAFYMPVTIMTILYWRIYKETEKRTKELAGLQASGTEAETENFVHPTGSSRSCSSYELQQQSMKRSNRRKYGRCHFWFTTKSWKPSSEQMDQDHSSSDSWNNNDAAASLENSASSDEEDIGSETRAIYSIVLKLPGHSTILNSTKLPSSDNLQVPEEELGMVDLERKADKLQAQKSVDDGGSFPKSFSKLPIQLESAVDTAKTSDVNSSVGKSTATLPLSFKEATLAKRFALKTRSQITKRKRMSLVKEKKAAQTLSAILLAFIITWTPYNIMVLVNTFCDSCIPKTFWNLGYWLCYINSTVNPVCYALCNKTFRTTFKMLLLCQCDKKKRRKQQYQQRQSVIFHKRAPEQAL
Structure (SMILES),EC50 (M2R) [µM],EC50 (M3R) [µM],EC50 (M4R) [µM],Kb (human M1R) [µM],log α Mean (human M1R),α-value (human M1R)
"Cn1cc(-c2ccc(CN3Cc4cccc(Oc5c(F)cccc5C#N)c4C3=O)cc2)cn1 [Compound B, 3-fluoro-2-((2-(4-(1-methyl-1H-pyrazol-4-yl)benzyl)-3-oxo-2,3-dihydro-1H-isoindol-4-yl)oxy)benzonitrile]",> 10,> 10,> 10,0.977,1.18,16
"Cn1cc(-c2ccc(CN3Cc4cccc(OCCN5CCCCC5)c4C3=O)cc2)cn1 [Compound F, 2-(4-(1-methyl-1H-pyrazol-4-yl)benzyl)-7-(2-(piperidin-1-yl)ethoxy)isoindolin-1-one]",> 10,> 10,> 10,9.12,1.54,–
"O=c1c2cn(Cc3ccc(-n4cccn4)cc3)c3ccccc3c-2nn1-c1ccccc1F [Compound E, 2-(2-fluorophenyl)-5-(4-(1H-pyrazol-1-yl)benzyl)-2,5-dihydro-3H-pyrazolo[4,3-c]quinolin-3-one, reference compound]",> 10,> 10,> 10,3.09,2.67,–
"Cn1ccc(-c2ccc(CN3Cc4cccc(O[C@H]5CCCC[C@@H]5O)c4C3=O)cc2)n1 [Compound A, 7-(((1S,2S)-2-hydroxycyclohexyl)oxy)-2-(4-(1-methyl-1H-pyrazol-3-yl)benzyl)isoindolin-1-one]",> 10,> 10,1,26.3,3.30,2371
"Cn1cc(-c2ccc(CN3Cc4cccc(-c5ccn[nH]5)c4C3=O)cc2)cn1 [Compound G, 2-(4-(1-methyl-1H-pyrazol-4-yl)benzyl)-7-(1H-pyrazol-5-yl)isoindolin-1-one]",> 10,> 10,> 10,14.8,0.56,–
"Cn1cc(-c2ccc(Cc3cc4c(=O)n([C@H]5CCCC[C@@H]5O)cnc4c4ccccc34)cn2)cn1 [Compound C, 3-((1S,2S)-2-hydroxycyclohexyl)-6-((6-(1-methyl-1H-pyrazol-4-yl)pyridin-3-yl)methyl)benzo[h]quinazoline-4(3H)-one, reference compound]",> 10,> 10,> 10,0.288,3.25,1786
"Cc1c(Cc2ccc(-n3cccn3)cc2)cc2c(c1F)CN([C@H]1COCC[C@@H]1O)C2=O [Compound D, 4-fluoro-2-[(3S,4S)-4-hydroxytetrahydro-2H-pyran-3-yl]-5-methyl-6-[4-(1H-pyrazol-1-yl)benzyl]-2,3-dihydro-1H-isoindol-1-one]",–,–,–,–,–,199
